From US6342187B1, “Process and apparatus for dry sterilization of medical devices and materials” (priority 1987, dated 2002) come the findings set out here.

Each structure is given as a SMILES string. Several values for one entry are separate records, joined by “and”; a condition that tells them apart may be missing. Identical values can stand only once. Like-named read-outs stand apart in the source and are kept apart here. A value given as a limit tells only on which side of the number the result lay.

Common to all, as to format: cell-based
Test [1] deals with biological indicator organism. In words: Example 21 designed experiments, modified AAMI EO test packs, log reduction (organism not specified). As to conditions: Example 21, mean over designed experiments; both precursors vaporized at 74° C.; 40 kHz, 5 kW. The method, then:
AAMI EO Test Packs: Modified AAMI Standard EO packs were prepared in which the BI strip was removed from its glassine wrap before processing. Three strips were placed in each syringe, and the syringe was closed at its large end with the standard rubber stopper. A second syringe was prepared containing one MDT Biosign CLBI (results reported as fractional negative). The syringes were placed adjacent to one another and were wrapped in a huckabuck towel per the AAMI EO Test Pack standard. The entire assembly was placed in a Baxter ‘Tower Dual-Peel’ 7.5″×13″ paper-plastic peel pouch, which was subsequently heat sealed.
Statistical Design of Experiments: This example is based upon both Taguchi and Greco-Latin Square experimental designs in accordance with standard statistical design of experiment techniques [CSS:Statistica, StatSoft, Tulsa, Okla. ]. These experimental designs permitted variation of four parameters over four discrete levels (Greco-Latin Square) or five parameters over four discrete levels (Taguchi L′16 design). The resultant data, reported as log reduction, is analyzed to provide mean values for each of the parameters at each parameter level. Also provided are ANOVA and correlation results (for reduction vs. exposure time), which evaluate the statistical validity of the data. […]

The next test has as its system Bstm. In words: Example 22 direct comparison of sterilant precursors, AAMI standard EO test packs. As to conditions: Example 22: 45 min plasma, 40 kHz, 5 kW, 600 microns; 30 min preconditioning; base pressure 100 microns; Bstm 10^6 spores; peracetic acid vaporized at 60° C., hydrogen peroxide at 74° C. The method, then: A direct comparison of 15% peracetic acid and 70% hydrogen peroxide sterilant precursors was made by exposing AAMI standard EO test packs for 45 minutes to plasma induced by 40 kHz excitation frequency with 5 kW RF power. […] No glassine was used on the BI strips (Bstm, 10^6 spore population, MDT lot 601).

For test [2], the system named is Bacillus Subtilis var Niger. The following applies: for vials with total kill, of ten Attest vials: Pyrex chamber, cooled cylinder, 0.280-0.300 torr, 38-57° C., moist = H2O 300 ppm. An excerpt:
However, for each of the examples the general technique involved was one in which the material to be sterilized was placed directly in the reaction chamber, or placed within a Tyvek/polyethylene pouch which itself was sealed and placed in a wire basket within the reaction chamber.
The materials used for verification of sterilization effectiveness were “Attest” vials obtained from 3M Company, or “Spordex” bacterial test strips obtained from the American Sterilizer Company, each vial or “Spordex” envelope contained a bacterial strip having an original spore population of not less than 1×10^6 Bacillus Subtilis var Niger per strip, but more commonly in the range 2.2-4.0×10^6 spores/strip. The strips contained the permeable plastic vials were not brought into contact with the culture solution contained in any of the vials prior to sterilization. The vials were placed within the Tyvek/polyethylene bags during the plasma sterilization, alongside devices or instruments to be sterilized. The bags were always sealed during the sterilization process.
For each example the chamber was first evacuated to an initial low pressure level after the materials (in the bags or pouches) were placed within it. The chamber was thereafter filled with the appropriate gas prior to striking the discharge, and the gas continued to flow through the chamber at a controlled rate to establish a steady state sterilization pressure. The discharge was initiated by the application of RF or microwave power as indicated. The discharge was maintained for a controlled time period at the end of which the power was turned off, the chamber was first evacuated, then backfilled with air through a bacteria retentive filter, and later opened and the samples removed. The temperature within the chamber during the process was maintained at less than 70° C., and more typically around 25° C. to 65° C., as sensed by an iron-constantan, type “J”, thermocouple circuitry and monitored by an analog temperature meter.
Subsequent to the tests, the spore strips in the “Attest” vials where brought into contact with the self-contained culture solution and incubated for 72 hr, at the end of which period microorganism growth or no growth would be indicated by the resultant color of the culture solution. Alternatively, the spore strips were submitted to an independent testing laboratory which performed a total plate count on the sample strips using a procedure in which 100 milliliters of sterile deionized water were added to each strip in a sterile whirl-pak bag. The bag was then placed in a lab blender for 10 minutes. One 10 milliliter aliquot of sample, a duplicate one milliliter sample, and two consecutive 10^−1 dilutions were plated using Tryptic Soy Agar. The plates were then incubated at 30-35° C. for 72 hours. After incubation, the plates were read and recorded, and the results calculated on a Colony Forming Unit (CFU) basis.

In the case of `CC(=O)OO` [15% peracetic acid, peracetic acid], the mean log reduction in test [1] stood at 2.8 log reduction; in the test on Bstm, 5.57.
With `OO` [70% hydrogen peroxide, hydrogen peroxide], the results for the mean log reduction (in test [1]; in the test on Bstm) were 3.1 log reduction and 5.43, respectively.
For the molecule `N#N` [Dry N2, Nitrogen], the “vials with total kill, of ten Attest vials” value in test [2] (Example 18: exposure 30 min, 100 scc/min, 0.020 W/cc) was 0 vials - total kill; in test [2] (Example 18: exposure 45 min, 100 scc/min, 0.020 W/cc) it was 0 vials - total kill; in test [2] (Example 18: exposure 60 min, 100 scc/min, 0.020 W/cc), 1 vial - total kill vials; in test [2] (Example 18: exposure 75 min, 100 scc/min, 0.020 W/cc), 2 vials - total kill.
Turning to `O=O` [O2, Oxygen], the Percent Kill in test [2] is listed as 99.9999%; in test [2] (Example 2: metal chamber, cooled perforated cylinder (FIG. 4), 20 scc/min, 0.30 torr, 0.050 W/cm^3, 60 min, 32° C.), “Total kill”; in test [2] (Example 4: metal chamber, two uncooled perforated cylinders (FIG. 6), 20 scc/min, 0.30 torr, 0.050 W/cm^3, 60 min, 76° C.), “Total kill”; in test [2] (Example 8: Pyrex chamber, cooled perforated cylinder (FIG. 1), 25 scc/min, 0.30 torr, 0.015 W/cm^3, 30 min, 26° C.) it was “Total kill”; in test [2] (Example 9: Pyrex chamber, uncooled perforated cylinder (FIG. 1), 25 scc/min, 0.30 torr, 0.015 W/cm^3, 30 min, 83° C.), “Total kill”; in test [2] (Example 12: Pyrex chamber, two uncooled perforated cylinders, 70 scc/min, 0.275 torr, 0.016 W/cc, 45 min, 92° C., AAMI standard sterilization test pack), “Total Kill”. Besides, the “Percent Kill” value in test [2] (Example 13: Pyrex chamber, two cooled perforated cylinders, conditions as Example 12, 54° C., AAMI test pack) is recorded as “Total Kill”; in test [2] (Example 14: Pyrex chamber, uncooled perforated cylinder, 70 scc/min, 0.275 torr, 0.014 W/cc, 30 min, 85° C.), “Total Kill”; in test [2] (Example 15: Pyrex chamber, cooled perforated cylinder (FIG. 1), conditions as Example 14, 47° C.) it was “Total Kill”; in test [2] (Example 16: Pyrex chamber, cooled perforated cylinder (FIG. 1), conditions as Example 14, exposure 2¼ hr, 51° C.) it was “Total Kill”; in test [2] (Example 19: spore strip in middle of 24-inch PVC or silicone rubber tubing, in sealed pouch, 100 scc/min, 0.280 torr, 0.020 W/cc, 70-105 min, 50° C.) it was “Total Kill”. The “Percent Kill (%)” value in test [2] was 77.6923% and 99.9999%. Besides, the “Resultant Microbial Count (CFUs)” value in test [2] is 5.8 × 10^5 CFUs and <10 CFUs. In test [2], the Resultant microbial count is on record as below 10 CFU.
